From the supplement of paper PMC10307832

How the values were obtained:
Assay in all cases: relative viability (nuclei count vs DMSO), 5 days (fraction); higher = more cells survive
A-427 = system: A-427
How it was run: (§1)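 Lung cancer cell lines in 1536-well plates got either a single drug or a fixed anchor-drug dose together with five library-drug doses (not always all listed) in √10 steps, by pin tool, on the day after seeding. Nuclei were counted after 5 days, and relative viability is the treated-to-vehicle ratio of nuclei counts. Values are medians of duplicate plates.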

COR-L 105 = system: COR-L 105
How it was run: as §1

ChaGo-K-1 = system: ChaGo-K-1
How it was run: as §1

EKVX = system: EKVX
How it was run: as §1

EMC-BAC-2 = system: EMC-BAC-2
How it was run: as §1

H3255 = system: H3255
How it was run: as §1

HCC-366 = system: HCC-366
How it was run: as §1

LK-2 = system: LK-2
How it was run: as §1

LOU-NH91 = system: LOU-NH91
How it was run: as §1

NCI-H1563 = system: NCI-H1563
How it was run: as §1

NCI-H1666 = system: NCI-H1666
How it was run: as §1

NCI-H1734 = system: NCI-H1734
How it was run: as §1

NCI-H1755 = system: NCI-H1755
How it was run: as §1

NCI-H1944 = system: NCI-H1944
How it was run: as §1

NCI-H1975 = system: NCI-H1975
How it was run: as §1

NCI-H2170 = system: NCI-H2170
How it was run: as §1

NCI-H23 = system: NCI-H23
How it was run: as §1

NCI-H441 = system: NCI-H441
How it was run: as §1

NCI-H520 = system: NCI-H520
How it was run: as §1

NCI-H596 = system: NCI-H596
How it was run: as §1

PC-3 [JPC-3] = system: PC-3 [JPC-3]
How it was run: as §1

SK-MES-1 = system: SK-MES-1
How it was run: as §1

SW 900 = system: SW 900
How it was run: as §1

**Q.** For CC(C)Oc1cc(Nc2nc(N[C@@H](C)c3ccc(F)cn3)ncc2Cl)n[nH]1 [AZ23] + COc1cc2c(Oc3ccc(NC(=O)C4(C(=O)Nc5ccc(F)cc5)CC4)cc3F)ccnc2cc1OCCCN1CCOCC1 [Foretinib] (partner 0.25 µM), which relative viability (A-427; first compound 0.01 µM) is on record?
**A.** 1

**Q.** What about the relative viability (A-427; first compound 0.03162 µM) of the same molecule?
**A.** 1.05

**Q.** What about the relative viability (A-427; first compound 0.3162 µM) of the same molecule?
**A.** 1.07

**Q.** And the relative viability (COR-L 105; first compound 0.01 µM)?
**A.** 1.07

**Q.** What about the relative viability (COR-L 105; first compound 0.03162 µM) of the same molecule?
**A.** 1.26

**Q.** What about the relative viability (COR-L 105; first compound 0.3162 µM) of the same molecule?
**A.** 0.842

**Q.** What about the relative viability (ChaGo-K-1; first compound 0.01 µM) of the same molecule?
**A.** 1.17

**Q.** What about the relative viability (ChaGo-K-1; first compound 0.03162 µM) of the same molecule?
**A.** 0.906

**Q.** And the relative viability (ChaGo-K-1; first compound 0.3162 µM)?
**A.** 0.95

**Q.** And the relative viability (EKVX; first compound 0.01 µM)?
**A.** 0.782

**Q.** And the relative viability (EKVX; first compound 0.03162 µM)?
**A.** 0.988

**Q.** What about the relative viability (EKVX; first compound 0.3162 µM) of the same molecule?
**A.** 0.565

**Q.** And the relative viability (EMC-BAC-2; first compound 0.01 µM)?
**A.** 1.12

**Q.** What about the relative viability (EMC-BAC-2; first compound 0.03162 µM) of the same molecule?
**A.** 1.06

**Q.** What about the relative viability (EMC-BAC-2; first compound 0.3162 µM) of the same molecule?
**A.** 0.989

**Q.** What about the relative viability (H3255; first compound 0.01 µM) of the same molecule?
**A.** 0.881

**Q.** And the relative viability (H3255; first compound 0.03162 µM)?
**A.** 0.764

**Q.** What about the relative viability (H3255; first compound 0.3162 µM) of the same molecule?
**A.** 0.915

**Q.** And the relative viability (HCC-366; first compound 0.01 µM)?
**A.** 1.13

**Q.** And the relative viability (HCC-366; first compound 0.03162 µM)?
**A.** 0.995

**Q.** What about the relative viability (HCC-366; first compound 0.3162 µM) of the same molecule?
**A.** 0.933

**Q.** And the relative viability (LK-2; first compound 0.01 µM)?
**A.** 1.15

**Q.** And the relative viability (LK-2; first compound 0.03162 µM)?
**A.** 1.38

**Q.** What about the relative viability (LK-2; first compound 0.3162 µM) of the same molecule?
**A.** 0.706

**Q.** And the relative viability (LOU-NH91; first compound 0.01 µM)?
**A.** 0.941

**Q.** What about the relative viability (LOU-NH91; first compound 0.03162 µM) of the same molecule?
**A.** 0.975

**Q.** What about the relative viability (LOU-NH91; first compound 0.3162 µM) of the same molecule?
**A.** 0.927

**Q.** What about the relative viability (NCI-H1563; first compound 0.01 µM) of the same molecule?
**A.** 0.922

**Q.** And the relative viability (NCI-H1563; first compound 0.03162 µM)?
**A.** 1.01

**Q.** And the relative viability (NCI-H1563; first compound 0.3162 µM)?
**A.** 0.993

**Q.** What about the relative viability (NCI-H1666; first compound 0.01 µM) of the same molecule?
**A.** 0.992

**Q.** What about the relative viability (NCI-H1666; first compound 0.03162 µM) of the same molecule?
**A.** 1.05

**Q.** And the relative viability (NCI-H1666; first compound 0.3162 µM)?
**A.** 0.918

**Q.** What about the relative viability (NCI-H1734; first compound 0.01 µM) of the same molecule?
**A.** 0.803

**Q.** And the relative viability (NCI-H1734; first compound 0.03162 µM)?
**A.** 0.872

**Q.** And the relative viability (NCI-H1734; first compound 0.3162 µM)?
**A.** 0.796

**Q.** And the relative viability (NCI-H1755; first compound 0.01 µM)?
**A.** 0.949

**Q.** And the relative viability (NCI-H1755; first compound 0.03162 µM)?
**A.** 0.94

**Q.** What about the relative viability (NCI-H1755; first compound 0.3162 µM) of the same molecule?
**A.** 0.958

**Q.** What about the relative viability (NCI-H1944; first compound 0.01 µM) of the same molecule?
**A.** 0.811

**Q.** What about the relative viability (NCI-H1944; first compound 0.03162 µM) of the same molecule?
**A.** 0.954

**Q.** What about the relative viability (NCI-H1944; first compound 0.3162 µM) of the same molecule?
**A.** 0.864

**Q.** What about the relative viability (NCI-H1975; first compound 0.01 µM) of the same molecule?
**A.** 1.05

**Q.** What about the relative viability (NCI-H1975; first compound 0.03162 µM) of the same molecule?
**A.** 1.14

**Q.** What about the relative viability (NCI-H1975; first compound 0.3162 µM) of the same molecule?
**A.** 0.99

**Q.** What about the relative viability (NCI-H2170; first compound 0.01 µM) of the same molecule?
**A.** 1.16

**Q.** And the relative viability (NCI-H2170; first compound 0.03162 µM)?
**A.** 0.98

**Q.** And the relative viability (NCI-H2170; first compound 0.3162 µM)?
**A.** 0.849

**Q.** What about the relative viability (NCI-H23; first compound 0.03162 µM) of the same molecule?
**A.** 1.07

**Q.** What about the relative viability (NCI-H23; first compound 0.3162 µM) of the same molecule?
**A.** 0.596

**Q.** And the relative viability (NCI-H441; first compound 0.01 µM)?
**A.** 1.52

**Q.** What about the relative viability (NCI-H441; first compound 0.03162 µM) of the same molecule?
**A.** 0.854

**Q.** What about the relative viability (NCI-H441; first compound 0.3162 µM) of the same molecule?
**A.** 0.967

**Q.** What about the relative viability (NCI-H520; first compound 0.01 µM) of the same molecule?
**A.** 0.813

**Q.** What about the relative viability (NCI-H520; first compound 0.03162 µM) of the same molecule?
**A.** 0.966

**Q.** And the relative viability (NCI-H520; first compound 0.3162 µM)?
**A.** 0.677

**Q.** And the relative viability (NCI-H596; first compound 0.01 µM)?
**A.** 0.89

**Q.** What about the relative viability (NCI-H596; first compound 0.03162 µM) of the same molecule?
**A.** 0.877

**Q.** What about the relative viability (NCI-H596; first compound 0.3162 µM) of the same molecule?
**A.** 0.737

**Q.** And the relative viability (PC-3 [JPC-3]; first compound 0.01 µM)?
**A.** 1.23

**Q.** What about the relative viability (PC-3 [JPC-3]; first compound 0.03162 µM) of the same molecule?
**A.** 1.14

**Q.** And the relative viability (PC-3 [JPC-3]; first compound 0.3162 µM)?
**A.** 0.996

**Q.** And the relative viability (SK-MES-1; first compound 0.01 µM)?
**A.** 0.761

**Q.** And the relative viability (SK-MES-1; first compound 0.03162 µM)?
**A.** 1.05

**Q.** What about the relative viability (SK-MES-1; first compound 0.3162 µM) of the same molecule?
**A.** 0.977

**Q.** What about the relative viability (SW 900; first compound 0.01 µM) of the same molecule?
**A.** 1.04

**Q.** And the relative viability (SW 900; first compound 0.03162 µM)?
**A.** 0.844

**Q.** And the relative viability (SW 900; first compound 0.3162 µM)?
**A.** 0.775
